Marks after values point to notes of the source that are not given here.
What was measured:
[1] = tested on: BxPC-3 pancreatic cancer; test: In vivo growth of BxPC-3 pancreatic cancer xenografts; design: species or system human; settings: BxPC-3-RFP; 35 days after inoculation; Pter and/or CRC
[2] = tested on: A549 lung adenocarcinoma; test: In vivo growth of A549 lung cancer xenografts; design: species or system human; settings: A549, day 35
[3] = tested on: PC-3 prostate adenocarcinoma; test: In vivo growth of PC-3 prostate cancer xenografts; design: species or system human; settings: PC-3, day 21
[4] = tested on: glucocorticoid receptors (GR); test: GR content of murine B16-F1 cells by [3H]-labeled ligand whole-cell binding assay; settings: B16-F1-RFP tumors; day 15
Protocol: Measurement of the GR Content of Cancer Cell Lines by [^3H]-Labeled Ligand Binding Assay. The GR content was measured by a whole-cell binding assay as previously described with some modifications (Harmon, J. M. & Thompson, E. B. […] Briefly 72 h-cultured melanoma cells were harvested, as indicated above, and resuspended in culture medium to a density of 5×10^6 cells/mL. […] Cells were then washed thrice in 5.0 mL of Hank's balanced salt solution and finally suspended in 1.5 mL of the same solution. […] The presence of at least 200-fold excess of unlabeled dexamethasone effectively competed out all of the binding of [^3H]-dexamethasone to specific GR. The binding of [^3H]-dexamethasone to specific GR was represented as the difference in disintegrations per minute per cell between those samples incubated with [^3H]-dexamethasone alone and those with at least 200-fold excess of unlabeled dexamethasone. Using the specific activity of [^3H]-dexamethasone, the number of receptors per cell was calculated, assuming that each receptor binds to one dexamethasone molecule.

[5] = tested on: AsPC-1 cells isolated from tumor-bearing mice; test: Chemosensitization of cultured AsPC-1 cells isolated from xenografts; assay type: cell-based, human; settings: 72 h-cultured, PL 1 μM, Chemo 0.125 μM PAC.PBP and 25 μM GTB, Pter = in vivo pretreatment
Protocol: (§1) FIGS. 18-25. Effect of piperlongumine and I-BET762, as GSH depleting and chemosensitizing agents, in in vitro growing human melanoma, pancreatic, breast, lung, liver, prostate, ovarian, and colorectal cancer cells. Cancer cells, isolated from Pter-treated tumor-bearing mice, were cultured as indicated under Methods. Chemotherapy (0.25 μM PAC.PBP in A2058 melanoma and MDA-MB-231 breast carcinoma cells; 0.125 μM PAC.PBP and 25 μM GTB in AsPC-1 pancreatic cancer cells; 1 μM VRB and 15 μM cisPt in A459 lung carcinoma cells; 0.15 μM DXR in HepG2 hepatocellular carcinoma cells; 15 nM DCT in PC-3 prostate carcinoma cells; 0.15 μM PAC.PBP and 25 μM CarboPt in SK-OV-3 ovarian carcinoma cells; 3 μM 5-FU, 1 μM FA and 0.6 μM IRI in HT-29 colorectal carcinoma cells) was added to the cultured flasks 24 h after seeding. […]
(§2) Human A2058, MeWo and MelJuso melanoma cells, and mouse AtT-20 pituitary corticotroph tumor cells were from the American Type Culture Collection (ATCC). […] Cell numbers were determined using a Coulter Counter (Coulter Electronic Inc., Miami, Fla.). […] Cellular viability was assessed as previously reported (Mena, S. et al. Clin Cancer Res 13, 2658-2666 (2007)), by measuring trypan blue exclusion and leakage of lactate dehydrogenase activity. […]

[6] = tested on: A549 cells isolated from tumor-bearing mice; test: Chemosensitization of cultured A549 cells isolated from xenografts; assay type: cell-based, human; settings: 72 h-cultured, PL 0.5 μM, Chemo 1 μM VRB and 15 μM cisPt, Pter = in vivo pretreatment
Protocol: as §1, §2

[7] = tested on: A549 human lung cancer; settings: 20 μM Pter, 24 h, in vitro; cited from earlier work
[8] = tested on: human melanoma; test: Effect of pterostilbene on human melanoma in vivo (growth, Ki-67, TUNEL, nuclear Nrf2)
Protocol: Animals, Tumor Growth, and In Vivo Administration of Pter.
Female nu/nu nude mice (6-8 weeks; Charles Rivers Laboratories, Wilmington, Mass.) were fed ad libitum on a standard diet (Harlan Teklad Animal Diets & Bedding, Madison, Wis.). Mice were kept on a 12-h-light/12-h-dark cycle with the room temperature at 22° C. […] For cancer xenograft experiments, mice were inoculated s.c. with 10×10^6 cancer cells per mouse. Tumor volume was calculated based on two dimensions, measured using calipers, and was expressed in mm^3 according to V=0.5a×b^2, where a and b are the long and the short diameters of the tumor, respectively. For histological analysis xenograft samples were first fixed in 4% formaldehyde, paraffin embedded, and stained as indicated below. Mice were monitored after inoculation, and tumor measurements were taken every 2 days. For pharmacokinetic and treatment studies Pterostilbene (Green Molecular S. L., Paterna, Spain) [dissolved in DMSO:ethanol (2:1), 50 mg Pter/ml] was administered i.v. through the jugular vein (where, previously, a permanent catheter was surgically fixed). Administration was slowly performed during 1-2 min.
Monoclonal mouse anti-human HMB45 antibodies (Abcam, Cambridge, UK) were used for immunohistochemical detection of melanoma cells. For that purpose, the tumors were fixed and paraffin embedded as described above. Immunohistochemical analysis was applied to tissue slices (5 μm thick) following the standard methodology recommended by Abcam. A horseradish peroxidase-conjugated goat anti-mouse polyclonal (Abcam) was used as secondary antibody.
Monoclonal mouse anti-human Ki-67 (Dako, Sant Cugat del Vallés, Spain) were used for immunohistochemical detection of the tumor growing fraction. Immunohistochemical analysis was applied to tissue slices (5 μm thick) following the standard methodology recommended by Dako. A biotin-conjugated goat anti-rabbit polyclonal (Dako) was used as secondary antibody.
DNA strand breaks in apoptotic cells were assayed by using a direct TUNEL labeling assay (Boehringer, Mannheim, Germany) and fluorescence microscopy following manufacturer's methodology.
Nrf2 Gene Transfer and Measurement.
The Tet-Off Advanced Inducible Gene Expression System (Clontech, Palo Alto, Calif.) was used to insert the human Nrf2 gene and for transfection into melanoma cells following manufacturer's instructions. Tet-off cells stably expressed Tet-regulated pTRE-Tight-Nrf2 giving up to an increased Nrf2 gene expression (Tet-Nrf2 cells). To suppress Nrf2 protein levels Tet-Nrf2 cells were cultured in the presence of 2 mg tetracycline (Sigma)/10^6 cells. The NE-PER extraction kit from Thermo Scientific (Rockford, Ill.) was used for nuclear protein extraction according to the manufacturer's instructions. The protein content was determined by the Pierce BCA protein assay. The antibodies (mouse monoclonal primary antibodies) against Nrf2 were purchased from Abcam. A total of 50 mg of protein was boiled in Laemmli buffer and resolved by 12.0% SDS-PAGE. Proteins were transferred to a nitrocellulose membrane (Hybond C-extra, GE Healthcare Europe GmbH, Barcelona, Spain) and subjected to Western blotting. The blotted membrane was blocked for 1 h at room temperature in Tris-buffered saline (TBS) containing 5% (w/v) membrane-blocking reagent (non-fat dried milk). All antibody incubations were carried out at room temperature in TBS containing 1% membrane-blocking reagent. […] Protein bands were quantified using laser densitometry.

[9] = tumors of Pter-treated melanoma-bearing mice

COc1cc(/C=C/c2ccc(O)cc2)cc(OC)c1 [Pter, trans-3,5-dimethoxy-4′-hydroxystilbene]
Tumor vol. [1]: 226 ± 63* mm^3
Tumor vol. [2]: 223 ± 88* mm^3
Tumor vol. [3]: 276 ± 74* mm^3
GR number (binding sites/cell) [4]: 112 ± 16 10^3 GR/cell
Viable cells [5]: 1249 ± 206 ×10^6
Viable cells [6]: 1317 ± 255 ×10^6
decrease in tumor cell viability [7]: ~40%
melanoma growth inhibition at lower dose ([8]; 20 mg/kg vs 30 mg/kg): less effective
melanoma growth inhibition at higher dose ([8]; 40 mg/kg vs 30 mg/kg): no further inhibition
nuclear Nrf2 in melanoma cells ([8]; in vivo Pter-treated vs control melanoma-bearing mice (FIG. 4C)): decreased
apoptotic cell death in tumors (TUNEL) [8, 9]: increase
melanoma cell proliferation in tumors (Ki-67 staining) [8, 9]: decrease
